Measurements from patent US7538216B2, “Guanidino phenylalanin compounds used as urokinase inhibitors” (Wilex AG, priority 2002, dated 2009).
Structures can show the parent of a compound that is named as a salt.

Experiments:
Format in all cases: biochemical
sc-urokinase = target: T1, sc-urokinase (Homo sapiens, UniProt P00749); assay: In-vitro inhibition of urokinase (chromogenic substrate, Dixon); conditions: 25° C, pH 8.0; mean of at least 3 determinations
T1 construct: purchased Ribosepharm GmbH, Haan, Germany
Experimental: (§1) In order to determine the activity of the inhibitor, 200 μl of Tris buffer (0.05 mol/l, containing the inhibitor, 0.154 mol of NaCl/l, 5% ethanol, pH 8.0), 25 μl of substrate (Pefachrome UK or Bz-βAla-Gly-Arg-pNA in H2O; Pentapharm Ltd., Basle, Switzerland) and 50 μl of sc-urokinase (Ribosepharm GmbH, Haan, Germany) were incubated at 25° C. After 3 min, the reaction was terminated by adding 25 μl of acetic acid (50%) and the absorption was determined at 405 nm using a Microplate Reader (MR 5000, Dynatech, Denkendorf, Germany). The Ki values were determined in accordance with Dixon by means of linear regression using a computer program. The Ki values are the means of at least 3 determinations; the standard deviation was less than 25%.

plasmin = target: T2, plasmin (Homo sapiens, UniProt P00747); assay: In-vitro inhibition of serine proteases of the trypsin type: plasmin
T2 construct: uPA mediates the proteolytic cleavage of plasminogen to give plasmin
T2 sequence (P00747 581-810 limits assumed, species assumed): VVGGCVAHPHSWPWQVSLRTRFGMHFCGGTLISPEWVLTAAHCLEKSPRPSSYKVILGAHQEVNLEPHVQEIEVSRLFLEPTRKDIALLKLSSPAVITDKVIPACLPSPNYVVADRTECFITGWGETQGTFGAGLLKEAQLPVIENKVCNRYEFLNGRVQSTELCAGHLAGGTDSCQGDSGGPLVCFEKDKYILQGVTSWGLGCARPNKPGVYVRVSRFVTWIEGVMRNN
T2 sequence (P00747 97-580 partner limits assumed, species assumed): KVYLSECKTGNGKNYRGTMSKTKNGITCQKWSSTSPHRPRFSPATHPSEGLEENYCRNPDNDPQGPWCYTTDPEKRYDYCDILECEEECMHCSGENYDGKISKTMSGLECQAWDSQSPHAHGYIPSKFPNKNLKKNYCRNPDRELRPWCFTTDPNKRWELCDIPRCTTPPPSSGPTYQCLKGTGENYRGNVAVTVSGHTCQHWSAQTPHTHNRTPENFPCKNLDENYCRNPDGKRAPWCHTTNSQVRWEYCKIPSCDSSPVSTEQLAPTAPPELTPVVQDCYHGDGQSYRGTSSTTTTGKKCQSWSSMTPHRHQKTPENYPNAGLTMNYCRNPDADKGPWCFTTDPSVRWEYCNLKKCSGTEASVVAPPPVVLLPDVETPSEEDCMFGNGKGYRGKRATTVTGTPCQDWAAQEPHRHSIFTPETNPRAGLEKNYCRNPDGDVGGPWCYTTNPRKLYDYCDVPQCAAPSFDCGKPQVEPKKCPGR
Experimental: as §1
(§2) The inhibitory effect for the enzymes employed was determined in accordance with the principle described in Example 3.

thrombin = thrombin (Homo sapiens, UniProt P00734); assay: In-vitro inhibition of serine proteases of the trypsin type: thrombin
Experimental: as §1, §2

- Ki (sc-urokinase): 0.47 µM
- Ki (plasmin): 3.8 µM
- Ki (thrombin): ≥ 12 µM
Compound: CCOC(=O)N1CCN(C(=O)[C@H](Cc2cccc(NC(=N)N)c2)NS(=O)(=O)c2c(C(C)C)cc(C(C)C)cc2C(C)C)CC1 [Example 1, Nα-2,4,6-triisopropylphenylsulfonyl-3-guanidino-(L)-phenylalanine-4-ethoxycarbonylpiperazine hydrochloride]
